Test results reported in paper PMC3164656, “Burkholderia cenocepacia BC2L-C Is a Super Lectin with Dual Specificity and Proinflammatory Activity” (PLoS Pathogens, 2011).
Values joined by “and” are separate entries in the source; they are usually repeats but may differ in a detail not shown here. Equal entries are not always repeated.

Legend:
BC2L-C-ct [1] = biological target: T1, BC2L-C-ct (Burkholderia cenocepacia, UniProt B4EH86); assay: Glycan array (Consortium for Functional Glycomics), C-terminal domain; format: binding; conditions: Alexa-labelled lectin 200 µg/mL, array version 3.2
T1 sequence (B4EH86 158-272): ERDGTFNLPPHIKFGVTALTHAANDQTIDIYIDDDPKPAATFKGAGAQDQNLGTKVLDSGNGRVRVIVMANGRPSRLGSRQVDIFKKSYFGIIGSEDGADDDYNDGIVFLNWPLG
Excerpt: Purified BC2L-C lectin samples were labeled with Alexa Fluor 488-TFP (Invitrogen, CA) according to manufacturer's instructions and re-purified on a D-Salt polyacrylamide desalting column (Pierce, Rockford IL). Alexa-labeled proteins were used for glycan-array screening with standard procedure of the Core H of the Consortium for Functional Glycomics (Emory University, Atlanta, GA, http://www.functionalglycomics.org). The screening of the printed glycan microarray chip (version 3.2, with 377 glycans from a library of natural and synthetic glycans) was performed with a concentration of BC2L-C of 200 µg/mL dissolved in 20 mM HEPES, 140 mM NaCl, 5 mM CaCl2, pH 7.5 for all samples.

BC2L-C-ct [2] = biological target: T1, BC2L-C-ct; assay: SPR on monosaccharide-activated surfaces, C-terminal domain; format: binding; conditions: CM5 chip, Biot-PAA-monosaccharide, 25°C
BC2L-C-ct [3] = biological target: T1, BC2L-C-ct; assay: Isothermal titration microcalorimetry, binding of saccharides to BC2L-C-ct; conditions: ITC, 25°C; for Kd / n (stoichiometry): 20 mM Tris pH 7.5
BC2L-C [4] = biological target: T2, BC2L-C (Burkholderia cenocepacia, UniProt B4EH86); assay: SPR on monosaccharide-activated surfaces, whole lectin; format: binding; conditions: CM5 chip, Biot-PAA-monosaccharide, 25°C
T2 sequence (B4EH86 1-272): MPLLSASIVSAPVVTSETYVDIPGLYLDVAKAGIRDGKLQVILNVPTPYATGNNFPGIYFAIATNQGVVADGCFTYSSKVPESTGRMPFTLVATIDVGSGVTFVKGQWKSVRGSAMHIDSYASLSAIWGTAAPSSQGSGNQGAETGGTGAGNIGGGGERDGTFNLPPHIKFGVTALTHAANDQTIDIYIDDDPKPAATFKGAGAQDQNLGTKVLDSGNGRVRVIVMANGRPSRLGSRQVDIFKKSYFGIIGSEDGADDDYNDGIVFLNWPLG

BC2L-C [5] = biological target: T2, BC2L-C; assay: Isothermal titration microcalorimetry, binding of saccharides to whole BC2L-C; conditions: ITC, 25°C; for Kd / n (stoichiometry): 20 mM Tris pH 7.5

| Molecule | recognition on glycan array (BC2L-C-ct [1]) | -TΔS (BC2L-C-ct [3]) [kcal/mol] | -ΔH (BC2L-C-ct [3]) [kcal/mol] | Kd (BC2L-C-ct [3]) | n (stoichiometry) (BC2L-C-ct [3]) | further results |
| --- | --- | --- | --- | --- | --- | --- |
| OC[C@H]1OC(O)[C@@H](O)[C@@H](O)[C@@H]1O (stereo partly drawn) [D-Man, D-mannose] | shortest fragment recognized, albeit not efficiently | 7.6 | 13.6 | 37.4 µM | 0.50 | binding of the C-terminal domain to sugar-modified surface (SPR) (BC2L-C-ct [2]): binds only to mannose-coated chips; n (stoichiometry) (BC2L-C-ct [3]; listed as Man): ~0.5; binding of the lectin to sugar-modified surface (SPR) (BC2L-C [4]): interacts strongly; -TΔS (BC2L-C [5]): 8.25 kcal/mol; Kd (BC2L-C [5]): 21.8 µM; n (stoichiometry) (BC2L-C [5]): 0.57 |
| C=CCO[C@H]1O[C@H]([C@@H](O)CO)[C@@H](O)[C@H](O[C@H]2O[C@H]([C@@H](O)CO)[C@@H](O)[C@H](O)[C@@H]2O)[C@@H]1O [Diheptose, allyl L-glycero-α-D-manno-heptopyranosyl-(1→3)-L-glycero-α-D-manno-heptopyranoside] | – | 3.82 | – | 88 µM and 88.1 µM | 0.48 | – |
| CC(=O)N[C@H]1C(O)O[C@H](CO)[C@@H](O[C@@H]2O[C@H](CO)[C@H](O)[C@H](O)[C@H]2O[C@@H]2O[C@@H](C)[C@@H](O)[C@@H](O)[C@@H]2O)[C@@H]1O[C@@H]1O[C@@H](C)[C@@H](O)[C@@H](O)[C@@H]1O (stereo partly drawn) [Lewis Y] | – | – | – | – | – | -TΔS (BC2L-C [5]): 3.87 kcal/mol; -ΔH (BC2L-C [5]): 9.78 kcal/mol; Kd (BC2L-C [5]): 47.5 µM; n (stoichiometry) (BC2L-C [5]): 1 and 1.01 |
| OC[C@H]1O[C@H](OC[C@H]2OC(O)[C@@H](O)[C@@H](O[C@H]3O[C@H](CO)[C@@H](O)[C@H](O)[C@@H]3O)[C@@H]2O)[C@@H](O)[C@@H](O)[C@@H]1O (stereo partly drawn) [Trimannose, Manα1-3(Manα1-6)Man] | – | 23.3 | 29.45 | 28.8 µM | 0.22 | – |
| C[C@H](O)[C@@H](O)[C@@H](O)[C@H](O)C=O [fucose] | – | – | – | – | – | binding of the lectin to sugar-modified surface (SPR) (BC2L-C [4]): interacts strongly |
| O=C[C@H](O)[C@@H](O)[C@@H](O)[C@H](O)CO [galactose] | – | – | – | – | – | binding of the lectin to sugar-modified surface (SPR) (BC2L-C [4]): not by galactose |
| CO[C@H]1O[C@H]([C@@H](O)CO)[C@@H](O)[C@H](O)[C@@H]1O [αMeHept, Methyl L-glycero-α-D-manno-heptopyranoside] | – | 4.9 | 10.1 | 150 µM | 0.56 | – |
| COC1O[C@H](CO)[C@@H](O)[C@H](O)[C@@H]1O (stereo partly drawn) [αMeMan, α-methyl-mannoside] | – | 6.93 | 13.1 | 27.6 µM | 0.52 | -TΔS (BC2L-C [5]): 11.1 kcal/mol; -ΔH (BC2L-C [5]): 17.6 kcal/mol; Kd (BC2L-C [5]): 18.3 µM; n (stoichiometry) (BC2L-C [5]): 0.49 |
| Manα1–2Man | recognised | – | – | – | – | – |
| Manα1–3Man | recognised | – | – | – | – | – |
| Manα1–6Man | recognised | – | – | – | – | – |
